7 compounds from PubChem BioAssay (NCI) can be followed below.

Molecules are shown by their SMILES.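 Growth conditions: 96-well plates. Treatment: test compound, 48 hours, 5 concentrations. Analysis: linear interpolation between bracketing concentrations; unreached endpoints set to highest concentration. GI50: concentration for 50% inhibition of growth. The concentration for full growth arrest is given as TGI.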

Common to all, as to assay: inhibition of tumour cell growth, NCI panel, 48 h
Assay [1] deals with MCF7 breast.
The subject of assay [2] is COLO 205 colon.
The test system of assay [3] is OVCAR-3 ovarian.
The subject of assay [4] is HOP-92 NSCLC.
Assay [5] deals with UO-31 renal.
In assay [6] the test system is MDA-MB-231 breast.
Assay [7] deals with IGROV1 ovarian.
The test system of assay [8] is DU-145 prostate.
Assay [9] concerns ACHN renal.
Assay [10] deals with HCC-2998 colon.

With `C=C1SC(=Nc2ccccc2Cl)N(C(=O)c2sc3ccccc3c2Cl)C1(C)C`, the GI50 in assay [1] is 3.76 µM; in [2], 3.49 µM; in assay [3], 7.55 µM; in assay [4] it was 3.47 µM; in assay [5], 3.64 µM; in assay [6] it was 8.68 µM. The GI50 in assay [7] is 6.2 µM; in [8] it was 11.3 µM; in assay [9] it was 3.24 µM; in assay [10], 8.54 µM. Besides, the TGI in assay [1] was above 51.7 µM; in assay [2], 11 µM; in assay [3], above 56.3 µM; in [4] it was above 22.8 µM; in assay [5], above 100 µM; in assay [6], 59.5 µM. Further, the TGI in assay [7] was above 100 µM; in assay [8], above 100 µM; in [9], above 46 µM; in [10], above 45 µM.
Take `O=c1ccccc(-c2ccc(-c3ccco3)cc2)c1O`: the GI50 in assay [1] is 0.412 µM; in assay [2], 3.1 µM; in assay [3], 0.415 µM; in [4], 2.05 µM; in [5], 0.598 µM; in [6] it was 0.704 µM. For the same compound, the GI50 is 0.633 µM in assay [7], 0.967 µM in assay [8], 0.437 µM in [9] and 0.691 µM in assay [10]. Further, the TGI in assay [1] amounted to 29.8 µM; in [2], 49.8 µM; in assay [3], 26.3 µM; in [4], 39.8 µM; in [5], 8.42 µM; in assay [6], 44.4 µM. Further, the TGI is 73.8 µM in [7], above 100 µM in assay [8], 12 µM in [9] and 33.2 µM in [10].
In the case of `COc1ccccc1N1CCN(C(=O)c2ccc(NS(=O)(=O)c3cccc4cccnc34)cc2)CC1`, the GI50 in [1] is above 49.4 µM; in [2], above 100 µM; in [3] it was above 100 µM; in assay [4], above 100 µM; in assay [5], above 100 µM; in assay [6], above 53.6 µM. Also, the GI50 in assay [7] is above 78.4 µM; in [8], above 100 µM; in assay [9] it was above 71 µM; in assay [10], above 100 µM. The TGI in [1], in assay [2], in assay [3], in assay [4], in [5] and in [6] was above 100 µM in each case. The TGI in assay [7], in assay [8], in assay [9] and in assay [10] was above 100 µM throughout.
For `O=C(NC1CCN(Cc2ccccc2)CC1)c1cc(C(=O)NC2CCN(Cc3ccccc3)CC2)cc(C(=O)NC2CCN(Cc3ccccc3)CC2)c1`, the GI50 in [1] was 0.946 µM; in [2], 3.62 µM; in assay [3] it was 10.7 µM; in assay [4], 5.55 µM; in assay [5], above 50 µM; in assay [6], 2.57 µM. Moreover, the GI50 in [7] is 25.2 µM; in [8], 18.2 µM; in assay [9], above 50 µM; in assay [10] it was 7.37 µM. The TGI in [1] was 1.85 µM; in [2], 10.6 µM; in assay [3], 44.6 µM; in assay [4], 12.3 µM; in assay [5] it was above 50 µM; in [6] it was 11.6 µM. The TGI is above 50 µM in assay [7], above 50 µM in [8], above 50 µM in [9] and 16.6 µM in assay [10].
For the compound `CC(C)(C)N1CC(OC(N)=O)C1`, the GI50 in [1], in assay [2], in [3], in [4], in [5] and in assay [6] was above 100 µM each time. Further, the GI50 in [7], in assay [8], in [9] and in [10] was above 100 µM each time. The TGI in assay [1], in assay [2], in assay [3], in [4], in assay [5] and in [6] was above 100 µM each time. Also, the TGI in [7], in assay [8], in assay [9] and in assay [10] was above 100 µM in each case.
As for `O=C1c2cccc3cc([N+](=O)[O-])cc(c23)C(=O)N1CCN1CCCC1`, the GI50 in assay [1] was 0.309 µM; in assay [2] it was 0.648 µM; in assay [3] it was 1.74 µM; in [4], 0.355 µM; in [5] it was 0.281 µM; in assay [6] it was 1.56 µM. The GI50 was 0.276 µM in assay [7], 0.286 µM in assay [8], 0.193 µM in assay [9] and 0.582 µM in assay [10]. For the same compound, the TGI in [1] turned out to be 3.83 µM; in assay [2], 2.92 µM; in assay [3] it was 5.71 µM; in assay [4], 2.79 µM; in [5] it was 3.17 µM; in assay [6] it was 11.1 µM. Moreover, the TGI in [7] turned out to be 5.16 µM; in [8], 1.24 µM; in assay [9], 0.706 µM; in [10] it was 2.74 µM.
As to `CCn1cc(C(=O)N/N=C/c2cccc(F)c2)c(=O)c2cc(F)c(N3CCNC(C)C3)c(F)c21` (stereo not given), the GI50 in assay [1] is 1.64 µM; in [2] it was 1.71 µM; in assay [3], 1.82 µM; in assay [4], 1.12 µM; in assay [5], 1.46 µM; in assay [6], 1.68 µM. Moreover, the GI50 in assay [7] was 1.58 µM; in [8], 1.67 µM; in assay [9], 1.63 µM; in assay [10], 1.86 µM. Moreover, the TGI is 3.18 µM in [1]; 3.25 µM in assay [2]; 3.4 µM in assay [3]; 2.42 µM in assay [4]; 2.79 µM in assay [5]; 3.14 µM in assay [6]. In addition, the TGI came to 3.16 µM in assay [7], 3.05 µM in [8], 2.99 µM in assay [9] and 3.53 µM in assay [10].
